According to patent publication US20240228481A1, “NOVEL SULFONAMIDE SERIES OF QR2 INHIBITORS TO TACKLE OXIDATIVE STRESS AND COGNITIVE DECLINE” (CARMEL HAIFA UNIVERSITY ECONOMIC CORPORATION LTD., priority 2021, published 2024):
Where a name gives a salt, the structure may show the parent alone.

Tests used:
Solubility in water = type: physicochemical; conditions: HCl salt
Excerpt: In order to enable water-solubility so that an inhibitor could be easily applied to crystalized QR2, and to enable oral administration of the inhibitor and eliminate undesirable formulations, HCl was conjugated to YB-537 (see step 6 in methods section ‘Synthesis of Novel QR2 Inhibitors’ and Table 3). […] Using the water-soluble YB-537 to determine ligand-target interactions, purified human QR2 was co-crystalized in the presence of the inhibitor (FIG. 3A). […] YB-537 is bound to each of the monomers, and interacts with amino acids from both monomers, as well as with FAD. The plane of YB-537 stacks up parallel to the isoalloxazine ring of the FAD and the average distance between the planes of the two rings is 3.5 Å. Each FAD moiety forms 17 contacts within 3.5 Å to atoms from YB-537 and 48 contacts to 17 amino acids from one monomer, namely—H12, S17, F18, N19, S21, P103, L104, Y105, W106, F107, T148, T149, G150, G151, Y156, E194, and R201. YB-537 binds to the catalytic site through a series of hydrophobic and hydrogen bonds with both FAD and amino acids from both QR2 monomers, in a manner unique to it (FIG. 3B). Specifically, YB-537 forms 6 contacts to G150, G151, M155 and a hydrogen bond with N162 from one monomer (A) and 8 contacts to F127, 1129, F132, and F179 from the other monomer (B).

C57BL/6 mice = assay: Delay fear conditioning after microinjection to CA1; type: in vivo, mouse; conditions: 5 μM to CA1
Excerpt: Mice were anesthetized under 2% isoflurane, using an induction box (HME109, Highland Medical Equipment). They were placed in a stereotaxic device (Kopf Stereotaxic Alignment System, model 1900) under continuous 1% isoflurane anesthesia. Guide cannulas were implanted bilaterally to CA1 (from bregma: −1.9 mm AP, ±1.4 mm ML, −1.6 mm DV), cemented to the skull and fitted with 28-gauge dummy cannulas extending 0.2 mm beyond the tip of the 1.2 mm guide cannulas. The mice were allowed at least 7 days of recovery before experimentation. The QR2 inhibitor YB-808 was dissolved in DMSO and further diluted in saline to a final DMSO concentration of 0.1%. YB-537 was dissolved in saline (0.9%). A total of 1 μl of 5 μM of either compound or vehicle was infused bilaterally to CA1, via a 28-gauge infusion cannula projecting 0.4 mm (drug delivery depth bregma: −1.6 mm DV) beyond the guide cannula, connected by polyethylene tubing to a 10 μl syringe (Hamilton) over the course of 1 min. The injection cannula was kept for 60 s inside the guide cannula in order prevent osmotic seepage of the doses upward through the cannula tract. Twenty minutes following the injection, animals underwent delay fear conditioning. Following experimentation, animals were sacrificed, brains were excised and sectioned in coronal sections, and cannula implantation was validated by imaging. […]

In the case of `Cc1ccc(-c2cn3cccc(C)c3n2)cc1S(=O)(=O)N1CCNCC1` [YB-537, 8-methyl-2-(4-methyl-3-(piperazin-1-ylsulfonyl)phenyl)imidazo[1,2-a]pyridine hydrochloride], the solubility in water (Solubility in water) is reported as “complete solution” and the baseline freezing (C57BL/6 mice) is reported as 3.595±1.244%.
